The record followed here is PubChem BioAssay AID1259407 (Chemical Carcinogenesis Research Information System (CCRIS), 2018).

Structures are written as SMILES. Activity calls are given as the source filed them. No rule for the calls is given here.

The data set concerns CCRIS mutagenicity, Ames/micronucleus/aberration tests. In words: CCRIS mutagenicity studies.
Setting [1] is: Test System: AMES SALMONELLA TYPHIMURIUM, Strain/Indicator: TA98, Metabolic Activation: NONE, Method: PREINCUBATION
Where [2] appears, read: Test System: AMES SALMONELLA TYPHIMURIUM, Strain/Indicator: TA100, Metabolic Activation: NONE, Method: PREINCUBATION
Setting [3] is: Test System: AMES SALMONELLA TYPHIMURIUM, Strain/Indicator: TA98, Metabolic Activation: NONE, Method: STANDARD PLATE.
[4] abbreviates: Test System: AMES SALMONELLA TYPHIMURIUM, Strain/Indicator: TA98, Metabolic Activation: RAT, LIVER, S-9, PCB, Method: PREINCUBATION
The mark [5] stands for this setting: Test System: AMES SALMONELLA TYPHIMURIUM, Strain/Indicator: TA100, Metabolic Activation: RAT, LIVER, S-9, PCB, Method: PREINCUBATION
The mark [6] stands for this setting: Test System: AMES SALMONELLA TYPHIMURIUM, Strain/Indicator: TA100, Metabolic Activation: NONE, Method: STANDARD PLATE.
[7] abbreviates: Test System: AMES SALMONELLA TYPHIMURIUM, Strain/Indicator: TA1535, Metabolic Activation: NONE, Method: STANDARD PLATE.

Turning to `NC(=O)Nc1nc2ccccc2[nH]1`, the mutagenic call (Test System: AMES SALMONELLA TYPHIMURIUM, Strain/Indicator: TA98, Metabolic Activation: HAMSTER, LIVER, S-9, AROCLOR 1254 (30%), Method: PREINCUBATION) was “active; positive”; the mutagenic call under setting [1] was “active; positive”; the mutagenic call (Test System: AMES SALMONELLA TYPHIMURIUM, Strain/Indicator: TA98, Metabolic Activation: RAT, LIVER, S-9, AROCLOR 1254 (30%), Method: PREINCUBATION) is “active; positive”; the mutagenic call (Test System: AMES SALMONELLA TYPHIMURIUM, Strain/Indicator: TA100, Metabolic Activation: HAMSTER, LIVER, S-9, AROCLOR 1254 (30%), Method: PREINCUBATION) was “inactive; negative”; the mutagenic call under setting [2] is “inactive; negative”; the mutagenic call (Test System: AMES SALMONELLA TYPHIMURIUM, Strain/Indicator: TA100, Metabolic Activation: RAT, LIVER, S-9, AROCLOR 1254 (30%), Method: PREINCUBATION) was “inactive; negative”.

Turning to `O=Cc1ccc([N+](=O)[O-])o1`, the mutagenic call (Test System: AMES SALMONELLA TYPHIMURIUM, Strain/Indicator: TA98(1,8-DNP6), Metabolic Activation: NONE, Method: STANDARD PLATE) was “active; positive”; the mutagenic call (Test System: AMES SALMONELLA TYPHIMURIUM, Strain/Indicator: TA98(1,8-DNP6), Metabolic Activation: RAT, LIVER, S-9, 3-METHYLCHOLANTHRENE, Method: STANDARD PLATE) was “active; positive”; the mutagenic call (Test System: AMES SALMONELLA TYPHIMURIUM, Strain/Indicator: TA98(NR), Metabolic Activation: NONE, Method: STANDARD PLATE) is “active; positive”; the mutagenic call (Test System: AMES SALMONELLA TYPHIMURIUM, Strain/Indicator: TA98(NR), Metabolic Activation: RAT, LIVER, S-9, 3-METHYLCHOLANTHRENE, Method: STANDARD PLATE) was “active; positive”; the mutagenic call under setting [3] was “active; positive”; the mutagenic call (Test System: AMES SALMONELLA TYPHIMURIUM, Strain/Indicator: TA98, Metabolic Activation: RAT, LIVER, S-9, 3-METHYLCHOLANTHRENE, Method: STANDARD PLATE) is “active; positive”. For the same compound, the mutagenic call reads like this: (Test System: AMES SALMONELLA TYPHIMURIUM, Strain/Indicator: TA100(1,8-DNP6), Metabolic Activation: NONE, Method: PREINCUBATION) “active; positive”; (Test System: AMES SALMONELLA TYPHIMURIUM, Strain/Indicator: TA100(1,8-DNP6), Metabolic Activation: RAT, LIVER, S-9, AROCLOR 1254, Method: PREINCUBATION) “active; positive”; (Test System: AMES SALMONELLA TYPHIMURIUM, Strain/Indicator: TA100(NR), Metabolic Activation: NONE, Method: PREINCUBATION) “active; positive”; (Test System: AMES SALMONELLA TYPHIMURIUM, Strain/Indicator: TA100(NR), Metabolic Activation: RAT, LIVER, S-9, AROCLOR 1254, Method: PREINCUBATION) “active; positive”; under setting [2], “active; positive”; (Test System: AMES SALMONELLA TYPHIMURIUM, Strain/Indicator: TA100, Metabolic Activation: RAT, LIVER, S-9, AROCLOR 1254, Method: PREINCUBATION) “active; positive”.

Turning to `CCCCN(COC(C)=O)N=O`, the mutagenic call (Test System: UDS RAT UROTHELIAL CELLS, Strain/Indicator: THY INCORP, Metabolic Activation: NONE) was “active; positive”.

For `OC1C=C2c3cc4ccccc4cc3-c3cccc(c32)C1O` (stereo not given), the mutagenic call (Test System: AMES SALMONELLA TYPHIMURIUM, Strain/Indicator: TA100, Metabolic Activation: RAT, LIVER, S-9, AROCLOR 1254, Method: STANDARD PLATE) was “active; positive”.

On to `c1ccc(OC2CO2)cc1` (stereo not given), for which the mutagenic call runs as follows: (Test System: AMES SALMONELLA TYPHIMURIUM, Strain/Indicator: TA98, Metabolic Activation: RAT LIVER MICROSOMES, Method: STANDARD PLATE) “active; positive”; (Test System: AMES SALMONELLA TYPHIMURIUM, Strain/Indicator: TA1535, Metabolic Activation: RAT LIVER MICROSOMES, Method: STANDARD PLATE) “active; positive”.

For the compound `CCc1nc2ccc(NC)c(C)c2nc1CC`, the mutagenic call reads like this: under setting [1], “inactive; negative”; under setting [4], “active; positive”; under setting [2], “inactive; negative”; under setting [5], “active; positive”.

In the case of `O=[N+]([O-])c1ccc(/C=C/c2cccc(Cl)c2)cc1`, the mutagenic call was “active; positive” (Test System: AMES SALMONELLA TYPHIMURIUM, Strain/Indicator: TA98 (NR), Metabolic Activation: NONE, Method: STANDARD PLATE); “active; positive” (Test System: AMES SALMONELLA TYPHIMURIUM, Strain/Indicator: TA98 (NR), Metabolic Activation: S-9, Method: STANDARD PLATE); “active; positive” under setting [3]; “active; positive” (Test System: AMES SALMONELLA TYPHIMURIUM, Strain/Indicator: TA98, Metabolic Activation: S-9, Method: STANDARD PLATE); “inactive; negative” (Test System: AMES SALMONELLA TYPHIMURIUM, Strain/Indicator: TA100(NR), Metabolic Activation: NONE, Method: STANDARD PLATE); “active; positive” (Test System: AMES SALMONELLA TYPHIMURIUM, Strain/Indicator: TA100 (NR), Metabolic Activation: S-9, Method: STANDARD PLATE). The mutagenic call is, setting by setting: under setting [6], “active; positive”; (Test System: AMES SALMONELLA TYPHIMURIUM, Strain/Indicator: TA100, Metabolic Activation: S-9, Method: STANDARD PLATE) “active; positive”.

As to `C[C@]12CCc3c(ccc4cc(O)ccc34)[C@@H]1CCC2=O`, the mutagenic call (Test System: UDS RAT HEPATOCYTES, Strain/Indicator: THY INCORP (18-20 HR), Metabolic Activation: NONE, Method: LIQUID SCINTILLATION COUNTING) is “inactive; negative”.

In the case of `O=C(CBr)c1ccc(-c2ccccc2)cc1`, the mutagenic call under setting [1] is “inactive; negative”; the mutagenic call under setting [4] is “inactive; negative”; the mutagenic call under setting [5] was “inactive; negative”; the mutagenic call (Test System: E. COLI, Strain/Indicator: WP2 UVRA, Metabolic Activation: NONE, Method: PREINCUBATION) was “inactive; negative”.

Regarding `O=CNNc1nc(-c2ccc([N+](=O)[O-])o2)cs1`, the mutagenic call is, setting by setting: (Test System: AMES SALMONELLA TYPHIMURIUM, Strain/Indicator: TA100, Metabolic Activation: RAT, LIVER, S-9, KC500 OR PHENOBARBITAL, Method: LIQUID SUSPENSION) “active; positive”; (Test System: E. COLI, Strain/Indicator: WP2, Metabolic Activation: NONE, Method: SPOT) “active; positive”; (Test System: E. COLI, Strain/Indicator: WP2 UVRA, Metabolic Activation: NONE, Method: SPOT) “active; positive”.

Consider `CN=NNC`, for which the mutagenic call under setting [7] was “active; positive”.

With `CC(C)(Oc1ccc(C(=O)c2ccc(Cl)cc2)cc1)C(=O)O`, the mutagenic call under setting [3] is “inactive; negative”; the mutagenic call (Test System: AMES SALMONELLA TYPHIMURIUM, Strain/Indicator: TA98, Metabolic Activation: RAT, LIVER, S-9, PHENOBARBITAL AND 5,6-BENZOFLAVONE, Method: STANDARD PLATE) was “inactive; negative”; the mutagenic call under setting [6] is “inactive; negative”; the mutagenic call (Test System: AMES SALMONELLA TYPHIMURIUM, Strain/Indicator: TA100, Metabolic Activation: RAT, LIVER, S-9, PHENOBARBITAL AND 5,6-BENZOFLAVONE, Method: STANDARD PLATE) was “inactive; negative”; the mutagenic call under setting [7] is “inactive; negative”; the mutagenic call (Test System: AMES SALMONELLA TYPHIMURIUM, Strain/Indicator: TA1535, Metabolic Activation: RAT, LIVER, S-9, PHENOBARBITAL AND 5,6-BENZOFLAVONE, Method: STANDARD PLATE) was “inactive; negative”. In addition, the mutagenic call is, setting by setting: (Test System: AMES SALMONELLA TYPHIMURIUM, Strain/Indicator: TA1537, Metabolic Activation: NONE, Method: STANDARD PLATE) “inactive; negative”; (Test System: AMES SALMONELLA TYPHIMURIUM, Strain/Indicator: TA1537, Metabolic Activation: RAT, LIVER, S-9, PHENOBARBITAL AND 5,6-BENZOFLAVONE, Method: STANDARD PLATE) “inactive; negative”; (Test System: E. COLI, Strain/Indicator: WP2 UVRA, Metabolic Activation: NONE, Method: STANDARD PLATE) “inactive; negative”; (Test System: E. COLI, Strain/Indicator: WP2 UVRA, Metabolic Activation: RAT, LIVER, S-9, PHENOBARBITAL AND 5,6-BENZOFLAVONE, Method: STANDARD PLATE) “inactive; negative”.

For the compound `Nc1ccc2ccc3c4ccccc4cc4ccc1c2c43`, the mutagenic call is “active; positive” (Test System: AMES SALMONELLA TYPHIMURIUM, Strain/Indicator: TA98, Metabolic Activation: NONE) and “active; positive” (Test System: AMES SALMONELLA TYPHIMURIUM, Strain/Indicator: TA98, Metabolic Activation: RAT, LIVER, S-9, AROCLOR 1254).
